The results in this text go back to US9440957B2, “Compounds and compositions for modulating EGFR Activity” (Novartis AG, priority 2012, dated 2016).

The structures appear in SMILES notation. Read-outs that look alike come from different tables or passages of the source.

The target of one assay is H3255 (EGFR L858R) (Homo sapiens, UniProt P00533, L858R). Put plainly: EGFR target modulation in H3255 cell line (phospho-EGFR Y1173 ELISA). It is filed as cell-based. On the procedure:
(§1) EGFR Target Modulation in H1975, H3255 and HCC827 Cell Lines Tissue Culture. Cells were maintained in 10% FBS/RPMI supplemented with 100 μg/ml Penicillin/Streptomycin (Hyclone #SH30236.01). […] The cells were allowed to incubate overnight in a 37° C., 5% CO2 humidified tissue culture incubator. […] The serial diluted compounds were transferred to the plate containing cells by using a 50 nl Pin Head device (Perkin Elmer) and the cells were placed back in the incubator for 3 hours. Phospho-EGFR ([…]) Target Modulation Assay. The media was reduced to 20 ul using a Bio-Tek ELx 405 SelectTM plate washer. […] The plates were shaken at 4° C. for 20 minutes. An aliquot of 25 ul from each well was transferred to pEGFR(Y1173) ELISA plates for analysis. Phospho-EGFR ([…]) ELISA. Solid white high-binding ELISA plates (Greiner #781074) were coated with 5 ug/ml anti-EGFR capture antibody (R&D Systems #AF231) overnight in 50 mM carbonate/bicarbonate pH 9.5 buffer. Plates were blocked with 1% BSA (Sigma #A7030) in PBS for 1 hour at room temperature. Wash steps were carried out with a Bio-Tek ELx405 SelectTM using 4 cycles of 100 ul TBS-T (20 mM Tris, 137 mM NaCl, 0.05% Tween-20) per well. […] Lysis was allowed to occur for 20 minutes on ice. A 25 ul aliquot was added to each well of the blocked ELISA plate and incubated overnight at 4° C. with gentle shaking. […] After washing, 1:2,000 anti-rabbit-HRP (Cell Signaling #7074) in 0.2% BSA/TBS-T was added and incubated for 1 hour at room temperature. Chemiluminescent detection was carried out with SuperSignal ELISA Pico substrate (ThermoScientific #37069). Signal was read on EnVision plate reader using built-in UltraLUM setting. Data Analysis. Control cells treated with EGF were set to 100% maximum response. […] With these parameters, the IC50's for each compound in each cell line was calculated using non-linear curve fitting analysis.
(In general: An ELISA detects its analyte on a solid surface through an enzyme-linked reagent.)

Assay [1] deals with human EGFR L858R (NIH/3T3 cells) (Homo sapiens, UniProt P00533, L858R). As to the kind of experiment: EGFR target modulation in engineered NIH/3T3 cell lines (phospho-EGFR Y1068 AlphaLISA), EGFR L858R. Type of assay: cell-based. The settings on record: engineered NIH/3T3 cells, read-out: NIH3T3 IC50 (μM) EGFR (L858R). The essentials:
(§2)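 Read-out is phospho-Y1068 AlphaLISA on cell lysates, with anti-total EGFR at 1 nM final equilibrated 1 h at room temperature. Cells were dosed 3 h with a 12-point 1:3 series starting from a 10 μM stock. Only the WT line received 50 ng/ml EGF for 5 min.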
(In general: In Alpha technology, singlet oxygen from a donor bead excites a nearby acceptor bead.)

For assay [2], the target named is human EGFR WT (NIH/3T3 cells, EGF-induced) (Homo sapiens, UniProt P00533). As to the kind of experiment: EGFR target modulation in engineered NIH/3T3 cell lines (phospho-EGFR Y1068 AlphaLISA), EGFR WT. Conditions: engineered NIH/3T3 cells, read-out: NIH3T3 IC50 (μM) EGFR (WT). It is filed as cell-based. The method in brief:
as §2

For another assay, the target named is HEKn (EGFR WT) (Homo sapiens, UniProt P00533). As to the kind of experiment: EGFR target modulation in HEKn (EGFR-WT) cell line (phospho-EGFR Y1173 ELISA). Conditions: value outside parentheses. It is filed as cell-based. As to the method:
EGFR Target Modulation in HEKn (EGFR-WT) Cell Line Tissue Culture. Human neonatal epithelial keratinocytes (Invitrogen #C-001-5C) were maintained in EpiLife media (Invitrogen #[…]) supplemented with growth factors (Invitrogen #S-001-5). Cells were harvested with 0.05% Trypsin/EDTA (Hyclone #SH30236.01) and quenched with 5% FBS/EpiLife media. […] The serial diluted compounds were transferred to the plate containing cells by using a 50 nl Pin Head device (Perkin Elmer) and the cells were placed back in the incubator for 3 hours. […] Phospho-EGFR (Y1173) ELISA. Solid white high-binding ELISA plates (Greiner #781074) were coated with 5 ug/ml anti-EGFR capture antibody (R&D Systems #AF231) overnight in 50 mM carbonate/bicarbonate pH 9.5 buffer. […] Wash steps were carried out with a Bio-Tek ELx405 SelectTM using 4 cycles of 100 ul TBS-T (20 mM Tris, 137 mM NaCl, 0.05% Tween-20) per well. […] Lysis was allowed to occur for 20 minutes on ice. A 25 ul aliquot was added to each well of the blocked ELISA plate and incubated overnight at 4° C. with gentle shaking. […] After washing, 1:2,000 anti-rabbit-HRP (Cell Signaling #7074) in 0.2% BSA/TBS-T was added and incubated for 1 hour at room temperature. Chemiluminescent detection was carried out with SuperSignal ELISA Pico substrate (ThermoScientific #37069). Signal was read on EnVision plate reader using built-in UltraLUM setting. Data Analysis. Control cells treated with EGF were set to 100% maximum response. […] With these parameters, the IC50's for each compound in each cell line was calculated using non-linear curve fitting analysis.

The next assay deals with H1975 (EGFR L858/T790M) (Homo sapiens, UniProt P00533, L858R/T790M). Put plainly: EGFR target modulation in H1975 cell line (phospho-EGFR Y1173 ELISA). Type of assay: cell-based. As to the method: as §1
Sequence of H1975 (EGFR L858/T790M) (P00533 25-1210 T790M/L858R): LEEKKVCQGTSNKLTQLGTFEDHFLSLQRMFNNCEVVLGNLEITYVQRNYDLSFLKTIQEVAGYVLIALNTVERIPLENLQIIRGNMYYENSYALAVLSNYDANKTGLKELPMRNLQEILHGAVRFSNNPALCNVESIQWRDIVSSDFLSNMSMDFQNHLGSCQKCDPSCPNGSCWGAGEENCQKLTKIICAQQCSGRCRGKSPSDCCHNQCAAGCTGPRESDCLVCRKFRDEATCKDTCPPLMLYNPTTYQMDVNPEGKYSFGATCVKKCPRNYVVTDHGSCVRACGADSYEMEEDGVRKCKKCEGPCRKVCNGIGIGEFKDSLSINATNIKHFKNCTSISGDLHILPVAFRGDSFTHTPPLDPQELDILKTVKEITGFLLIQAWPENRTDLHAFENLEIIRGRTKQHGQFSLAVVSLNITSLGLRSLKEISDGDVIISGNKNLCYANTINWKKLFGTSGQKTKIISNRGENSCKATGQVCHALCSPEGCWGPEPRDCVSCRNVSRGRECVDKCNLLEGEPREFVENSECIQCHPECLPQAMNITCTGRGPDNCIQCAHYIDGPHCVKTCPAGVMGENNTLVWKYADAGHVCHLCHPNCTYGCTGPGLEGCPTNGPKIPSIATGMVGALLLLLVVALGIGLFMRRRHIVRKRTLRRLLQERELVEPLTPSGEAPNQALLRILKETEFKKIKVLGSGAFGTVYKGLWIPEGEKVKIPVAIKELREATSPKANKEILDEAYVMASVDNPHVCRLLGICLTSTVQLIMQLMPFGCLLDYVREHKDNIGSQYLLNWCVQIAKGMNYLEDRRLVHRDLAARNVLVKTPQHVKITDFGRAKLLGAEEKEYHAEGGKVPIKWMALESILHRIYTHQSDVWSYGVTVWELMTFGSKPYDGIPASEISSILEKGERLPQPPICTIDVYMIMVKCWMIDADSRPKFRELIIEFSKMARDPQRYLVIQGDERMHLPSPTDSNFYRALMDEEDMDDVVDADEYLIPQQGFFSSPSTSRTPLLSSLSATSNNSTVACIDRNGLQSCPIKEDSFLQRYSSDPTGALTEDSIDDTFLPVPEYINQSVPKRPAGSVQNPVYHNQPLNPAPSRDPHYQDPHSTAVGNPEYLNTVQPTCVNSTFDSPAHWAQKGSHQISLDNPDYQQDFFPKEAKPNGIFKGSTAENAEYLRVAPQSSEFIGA
A further assay concerns the target T1, EGFR(L858R/T790M) (Homo sapiens, UniProt P00533, L858R/T790M).
T1 construct: purchased from Carna (GST-a.a. 669-1210)
As to the kind of experiment: EGFR biochemical assay (HTRF), IC50 determinations. The method in brief: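 HTRF kinase reaction with biotin-TK peptide at room temperature, quenched with EDTA at 60 min and detected with PT66K/SAXL after 1 h. Without preincubation, enzyme starts the reaction with compound, ATP and peptide present. With preincubation, compound, enzyme and peptide sit at room temperature for a set time before ATP is added.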
(In general: TR-FRET usually uses a lanthanide donor and a delayed reading to cut background.)

Assay [3] addresses human EGFR L858R/T790M (NIH/3T3 cells) (Homo sapiens, UniProt P00533, L858R/T790M). As to the kind of experiment: EGFR target modulation in engineered NIH/3T3 cell lines (phospho-EGFR Y1068 AlphaLISA), EGFR L858R/T790M. The settings on record: engineered NIH/3T3 cells, read-out: NIH3T3 IC50 (μM) EGFR (L858R/T790M). Type of assay: cell-based. The essentials: as §2
Where [4] appears, read: EGFR (L858R/T790M) with 90 min pre-incubation, read-out: IC50 (μM) Column B.
Setting [5] is: EGFR (L858R/T790M) with no pre-incubation, read-out: IC50 (μM) Column A.

Sequence of human EGFR L858R/T790M (NIH/3T3 cells) (P00533 25-1210 T790M/L858R): as above
Sequence of human EGFR L858R (NIH/3T3 cells) (P00533 25-1210 L858R): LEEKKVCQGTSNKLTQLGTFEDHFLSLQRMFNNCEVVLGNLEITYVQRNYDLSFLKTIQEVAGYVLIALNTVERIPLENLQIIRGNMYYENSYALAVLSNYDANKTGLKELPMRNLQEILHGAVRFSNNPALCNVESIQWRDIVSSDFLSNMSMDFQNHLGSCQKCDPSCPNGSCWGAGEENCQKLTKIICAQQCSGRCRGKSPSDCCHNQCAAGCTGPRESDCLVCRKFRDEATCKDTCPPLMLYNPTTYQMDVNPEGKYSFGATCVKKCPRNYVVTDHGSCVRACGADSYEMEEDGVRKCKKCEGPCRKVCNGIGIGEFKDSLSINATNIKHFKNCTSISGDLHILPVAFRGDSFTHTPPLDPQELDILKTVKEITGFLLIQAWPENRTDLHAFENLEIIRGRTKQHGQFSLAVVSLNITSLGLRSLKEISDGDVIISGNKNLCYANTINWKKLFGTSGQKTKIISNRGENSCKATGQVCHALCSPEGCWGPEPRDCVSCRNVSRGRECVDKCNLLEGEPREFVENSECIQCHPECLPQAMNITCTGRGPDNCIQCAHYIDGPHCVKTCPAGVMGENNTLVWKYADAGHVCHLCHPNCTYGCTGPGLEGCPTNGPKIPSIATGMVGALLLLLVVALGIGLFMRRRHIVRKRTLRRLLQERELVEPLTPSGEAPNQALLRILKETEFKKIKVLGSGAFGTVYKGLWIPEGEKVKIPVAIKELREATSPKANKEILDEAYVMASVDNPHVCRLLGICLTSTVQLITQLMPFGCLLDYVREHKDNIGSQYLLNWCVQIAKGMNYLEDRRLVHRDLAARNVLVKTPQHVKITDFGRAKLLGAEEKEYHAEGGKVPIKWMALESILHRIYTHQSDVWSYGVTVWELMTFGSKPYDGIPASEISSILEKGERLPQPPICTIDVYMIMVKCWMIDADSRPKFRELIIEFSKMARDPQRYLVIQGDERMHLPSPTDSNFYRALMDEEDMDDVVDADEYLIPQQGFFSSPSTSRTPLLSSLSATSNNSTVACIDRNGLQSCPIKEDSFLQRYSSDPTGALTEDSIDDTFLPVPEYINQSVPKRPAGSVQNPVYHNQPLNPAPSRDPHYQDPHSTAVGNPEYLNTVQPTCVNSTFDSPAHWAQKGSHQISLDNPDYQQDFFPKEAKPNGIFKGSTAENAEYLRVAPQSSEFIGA
Sequence of H3255 (EGFR L858R) (P00533 25-1210 L858R): as above

For `C=CC(=O)N1CCCC[C@@H](n2c(NC(=O)c3ccccc3)nc3cccc(CN(C)C)c32)C1` [Example 17-129], the IC50 at H3255 (EGFR L858R) was 4 nM; in assay [1], 0.002 µM; in assay [2], 0.045 µM; at HEKn (EGFR WT), 28 nM; at H1975 (EGFR L858/T790M), 1 nM; at EGFR(L858R/T790M) (setting [4]) it was less than 0.001 µM. In addition, the IC50 (on EGFR(L858R/T790M) (setting [5]); in assay [3]) was 0.002 µM throughout.
With `Cc1cccc2nc(NC(=O)c3cccc(-n4cnnn4)c3)n(C3CCCCN(C(=O)/C=C/CN(C)C)C3)c12` (stereo not drawn) [Example 17-53], the IC50 at H3255 (EGFR L858R) is 4 nM; in assay [1], 0.003 µM; in assay [2] it was 0.058 µM; on HEKn (EGFR WT), 261 nM; at H1975 (EGFR L858/T790M) it was 2 nM; at EGFR(L858R/T790M) (setting [4]) it was less than 0.001 µM. Also, the IC50 (at EGFR(L858R/T790M) (setting [5]); in assay [3]) was 0.002 µM each time.
As for `C=CC(=O)N1CCCC[C@@H](n2c(NC(=O)c3cccc(C(F)(F)F)c3)nc3cccc(C)c32)C1` (single isomer, unassigned) [Example 21-4], the IC50 was 13 nM against H3255 (EGFR L858R); 0.004 µM in assay [1]; 0.239 µM in assay [2]; 285 nM on HEKn (EGFR WT); 1 nM at H1975 (EGFR L858/T790M); less than 0.001 µM at EGFR(L858R/T790M) (setting [4]). Also, the values for the IC50 (on EGFR(L858R/T790M) (setting [5]); in assay [3]) were 0.006 µM and 0.002 µM, respectively.
As to `C=CC(=O)N1CCCC[C@@H](n2c(NC(=O)c3cnnc(C)c3)nc3cccc(C)c32)C1` [Example 17-81], the IC50 against H3255 (EGFR L858R) is 4 nM; in assay [1] it was 0.003 µM; in assay [2], 0.067 µM; at HEKn (EGFR WT) it was 162 nM; on H1975 (EGFR L858/T790M), 2 nM; at EGFR(L858R/T790M) (setting [4]), less than 0.001 µM. Also, the IC50 (at EGFR(L858R/T790M) (setting [5]); in assay [3]) was 0.002 µM throughout.
In the case of `Cc1cccc2nc(NC(=O)c3ccnc(C(F)(F)F)c3)n([C@@H]3CCCCN(C(=O)/C=C/CN(C)C)C3)c12` [Example 8, (R,E)-N-(1-(1-(4-(dimethylamino)but-2-enoyl)azepan-3-yl)-7-methyl-1H-benzo[d]imidazol-2-yl)-2-(trifluoromethyl)isonicotinamide], the IC50 against H3255 (EGFR L858R) was 2 nM; in assay [1], 0.001 µM; in assay [2] it was 0.021 µM; on HEKn (EGFR WT) it was 82 nM; at H1975 (EGFR L858/T790M) it was 1 nM; in assay [3] it was 0.001 µM.
As to `Cc1cc(C(=O)Nc2nc3cccc(C)c3n2[C@@H]2CCCCN(C(=O)/C=C/CN3CC[C@@H](F)C3)C2)ccn1` [Example 3-10], the IC50 was 13 nM against H3255 (EGFR L858R); 620 nM at HEKn (EGFR WT); 8 nM on H1975 (EGFR L858/T790M); less than 0.001 µM on EGFR(L858R/T790M) (setting [4]); 0.006 µM on EGFR(L858R/T790M) (setting [5]).
Turning to `COc1cc2nc(NC(=O)c3cc(C)nc(C)c3)n([C@@H]3CCCCN(C(=O)/C=C/CN(C)C)C3)c2cc1Cl` [Example 17-179], the IC50 against H3255 (EGFR L858R) stood at 188 nM; on HEKn (EGFR WT), 5400 nM; against H1975 (EGFR L858/T790M), 234 nM; at EGFR(L858R/T790M) (setting [4]), 0.012 µM; on EGFR(L858R/T790M) (setting [5]), 0.23 µM.
Turning to `O=C(Nc1nc2cccc(Cl)c2n1[C@@H]1CCCCN(C(=O)/C=C/CN2CC[C@@H](F)C2)C1)c1ccnnc1` [Example 3-11], the IC50 at H3255 (EGFR L858R) is 9 nM; at HEKn (EGFR WT), 169 nM; at H1975 (EGFR L858/T790M) it was 7 nM; at EGFR(L858R/T790M) (setting [4]), less than 0.001 µM; on EGFR(L858R/T790M) (setting [5]) it was 0.005 µM.
For the compound `COc1ccc2nc(NC(=O)c3ccnc(C)c3)n([C@@H]3CCCCN(C(=O)/C=C/CN(C)C)C3)c2c1Cl` [Example 17-177], the IC50 was 4 nM on H3255 (EGFR L858R); 93 nM on HEKn (EGFR WT); 4 nM against H1975 (EGFR L858/T790M); less than 0.001 µM on EGFR(L858R/T790M) (setting [4]); 0.003 µM on EGFR(L858R/T790M) (setting [5]).
On to `C=CC(=O)N1CCCC[C@@H](n2c(NC(=O)c3cccc(F)c3F)nc3cc(CN4CC[C@@H](OC)C4)cc(C)c32)C1` [Example 17-160], for which the IC50 is 17 nM against H3255 (EGFR L858R); 237 nM on HEKn (EGFR WT); 1 nM against H1975 (EGFR L858/T790M); less than 0.001 µM on EGFR(L858R/T790M) (setting [4]); 0.007 µM at EGFR(L858R/T790M) (setting [5]).
